Results as given in PubChem BioAssay AID330 (DTP/NCI, 2004).
Values joined by “and” are separate entries in the source; they are usually repeats but may differ in a detail not shown here. Identical values can stand only once. Inconclusive results and toxic doses are left out. How the source made its calls: active means survival T/C of 150% or more; inactive means T/C below 125% in these data. Square brackets hold non-standard residues; d marks the D form. Peptide text beside a SMILES is read from it. * marks the point of attachment. Cbz = O=C(OCc1ccccc1)*; Nva = CCC[CH](N)C(=O)O

Tested on: P388 leukemia ip, CD2F1 mice, survival T/C
Assay: NCI In Vivo Anticancer Drug Screen. Data for tumor model P388 Leukemia (intraperitoneal) in CD2F1 (CDF1) mice
Settings: endpoint: median survival time, higher = longer survival
Procedure, shortened: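 Mice carrying the transplanted tumor received test compound or vehicle. Survival was recorded in each group, and the value is the treated-group measurement divided by that of the vehicle-treated control group.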

[1] = dose: 50.0 mg/kg/injection, schedule: Q01DX005 (ip), vehicle: saline with Tween-80
[2] = dose: 100.0 mg/kg/injection, schedule: Q01DX005 (ip), vehicle: saline with Tween-80
[3] = dose: 200.0 mg/kg/injection, schedule: Q01DX005 (ip), vehicle: saline with Tween-80
[4] = dose: 50.0 mg/kg/injection, schedule: Q01DX009 (ip), vehicle: Klucel (hydroxypropylcellulose) (HPC)
[5] = dose: 100.0 mg/kg/injection, schedule: Q01DX009 (ip), vehicle: Klucel (hydroxypropylcellulose) (HPC)
[6] = dose: 50.0 mg/kg/injection, schedule: Q04DX003 (ip), vehicle: saline with Tween-80
[7] = dose: 100.0 mg/kg/injection, schedule: Q04DX003 (ip), vehicle: saline with Tween-80
[8] = dose: 200.0 mg/kg/injection, schedule: Q04DX003 (ip), vehicle: saline with Tween-80
[9] = dose: 12.5 mg/kg/injection, schedule: Q01DX009 (ip), vehicle: Klucel (hydroxypropylcellulose) (HPC)
[10] = dose: 50.0 mg/kg/injection, schedule: Q01DX009 (ip), vehicle: saline with Tween-80
[11] = dose: 100.0 mg/kg/injection, schedule: Q01DX009 (ip), vehicle: saline with Tween-80
[12] = dose: 200.0 mg/kg/injection, schedule: Q01DX009 (ip), vehicle: saline with Tween-80
[13] = dose: 12.5 mg/kg/injection, schedule: Q01DX005 (ip), vehicle: saline with Tween-80
[14] = dose: 25.0 mg/kg/injection, schedule: Q01DX005 (ip), vehicle: saline with Tween-80
[15] = dose: 400.0 mg/kg/injection, schedule: Q01DX009 (ip), vehicle: saline with Tween-80
[16] = dose: 6.25 mg/kg/injection, schedule: Q01DX009 (ip), vehicle: saline with Tween-80
[17] = dose: 50.0 mg/kg/injection, schedule: Q01DX005 (ip), vehicle: saline
[18] = dose: 25.0 mg/kg/injection, schedule: Q01DX009 (ip), vehicle: saline
[19] = dose: 50.0 mg/kg/injection, schedule: Q01DX009 (ip), vehicle: saline
[20] = dose: 25.0 mg/kg/injection, schedule: Q01DX009 (ip), vehicle: Klucel (hydroxypropylcellulose) (HPC)

Measured: T/C

CCCC(NC(=O)C(Cc1ccccc1)NC(=O)OCc1ccccc1)C(=O)O (stereo not drawn) (Cbz-Phe-[Nva]-OH; configuration not given here)
inactive: [1] 104 % of control | [2] 101 % of control | [3] 98 % of control

COc1ccc(OC)c(C(N)=O)c1
inactive: [4] 102 % of control | [5] 102 % of control | dose: 200.0 mg/kg/injection, schedule: Q01DX009 (ip), vehicle: Klucel (hydroxypropylcellulose) (HPC) 100 % of control

C=C1C(=O)OC2C1CCC(C)=C1C(=O)C=C(C)C12 (stereo not given)
inactive: [6] 109 % of control | [7] 116 % of control | [8] 119 % of control

CCC1(CC)C(=O)NC(=O)[N]([Sn]([CH2]C)([CH2]C)[N]2C(=O)NC(=O)C(CC)(CC)C2=O)C1=O
inactive: dose: 1.56 mg/kg/injection, schedule: Q01DX005 (ip), vehicle: Klucel (hydroxypropylcellulose) (HPC) 90 % of control | dose: 3.12 mg/kg/injection, schedule: Q01DX005 (ip), vehicle: Klucel (hydroxypropylcellulose) (HPC) 111 % of control and 117 % of control | dose: 6.25 mg/kg/injection, schedule: Q01DX005 (ip), vehicle: Klucel (hydroxypropylcellulose) (HPC) 120 % of control | dose: 12.5 mg/kg/injection, schedule: Q01DX005 (ip), vehicle: Klucel (hydroxypropylcellulose) (HPC) 111 % of control

Cc1ccc2nc(NC(=O)OCc3ccccc3)sc2c1
inactive: dose: 6.25 mg/kg/injection, schedule: Q01DX009 (ip), vehicle: Klucel (hydroxypropylcellulose) (HPC) 97 % of control | [9] 101 % of control

CC1(C)CCCc2c(-c3ccccc3)cc3c4[nH]c5ccccc5c4cc[n+]3c21
inactive: [10] 99 % of control | [11] 99 % of control | [12] 101 % of control

COc1cccc(C=Nc2cc(C)ccn2)c1O.COc1cccc(C=Nc2cc(C)ccn2)c1O.[Cu]
inactive: dose: 6.25 mg/kg/injection, schedule: Q01DX005 (ip), vehicle: saline with Tween-80 99 % of control | [13] 100 % of control | [14] 96 % of control

CON1C(=O)c2ccccc2C1=O
inactive: [11] 99 % of control | [12] 106 % of control | [15] 106 % of control

COc1ccc(NC(N)=S)cc1OC
inactive: [6] 95 % of control | [7] 88 % of control | [8] 88 % of control

CN(c1ccccc1)c1c2c(oc(=O)c1Cl)-c1ccccc1SC2
inactive: [16] 91 % of control | dose: 25.0 mg/kg/injection, schedule: Q01DX009 (ip), vehicle: saline with Tween-80 93 % of control | [12] 93 % of control

COC(=O)C(=O)c1c(-c2ccc(Cl)c(Cl)c2)[nH]c2[nH]n(-c3ccccc3)c(=O)c2c1=O
inactive: dose: 60.0 mg/kg/injection, schedule: Q01DX005 (ip), vehicle: saline with Tween-80 94 % of control | dose: 120.0 mg/kg/injection, schedule: Q01DX005 (ip), vehicle: saline with Tween-80 88 % of control | dose: 240.0 mg/kg/injection, schedule: Q01DX005 (ip), vehicle: saline with Tween-80 88 % of control

Cc1ccc2oc3c(=O)c4ccccc4c(=O)c=3oc2c1
inactive: [7] 90 % of control | [8] 89 % of control | dose: 400.0 mg/kg/injection, schedule: Q04DX003 (ip), vehicle: saline with Tween-80 90 % of control

CC(=O)OCC#CCN1CCOCC1
inactive: [17] 124 % of control | dose: 60.0 mg/kg/injection, schedule: Q01DX005 (ip), vehicle: suspension in saline 102 % of control | dose: 120.0 mg/kg/injection, schedule: Q01DX005 (ip), vehicle: suspension in saline 100 % of control

c1ccc([P+](CC[P+](c2ccccc2)(c2ccccc2)c2ccccc2)(c2ccccc2)c2ccccc2)cc1
inactive: dose: 0.78 mg/kg/injection, schedule: Q01DX009 (ip), vehicle: saline 105 % of control | dose: 1.56 mg/kg/injection, schedule: Q01DX009 (ip), vehicle: saline 103 % of control

O=C(O)c1cccc(C(=O)O)c1S(=O)(=O)c1ccccc1
inactive: dose: 100.0 mg/kg/injection, schedule: Q01DX001 (ip), vehicle: saline with Tween-80 99 % of control | dose: 200.0 mg/kg/injection, schedule: Q01DX001 (ip), vehicle: saline with Tween-80 98 % of control | dose: 400.0 mg/kg/injection, schedule: Q01DX001 (ip), vehicle: saline with Tween-80 95 % of control

CCN(CC)CCOC(=O)CC1CCCCC1
inactive: [10] 102 % of control | [11] 100 % of control | [12] 99 % of control

CCOC(=O)C1=C(C)NC(=O)NC1c1ccc([N+](=O)[O-])s1 (stereo not given)
inactive: dose: 50.0 mg/kg/injection, schedule: Q01DX005 (ip), vehicle: Klucel (hydroxypropylcellulose) (HPC) 87 % of control | dose: 100.0 mg/kg/injection, schedule: Q01DX005 (ip), vehicle: Klucel (hydroxypropylcellulose) (HPC) 97 % of control | dose: 200.0 mg/kg/injection, schedule: Q01DX005 (ip), vehicle: Klucel (hydroxypropylcellulose) (HPC) 91 % of control

N#CC(C(=O)N1CCCC1)=C(S)S
inactive: [11] 100 % of control | [12] 100 % of control | [15] 100 % of control

COCCn1nc(-c2ccc(Cl)cc2)c(-c2ccc(Cl)cc2)c(C(C)=O)c1=O
inactive: [1] 100 % of control | [2] 100 % of control | [3] 93 % of control

O=[N+]([O-])c1ccc(C=Nc2ccccc2)cc1
inactive: [10] 101 % of control | [11] 101 % of control | [12] 97 % of control | [15] 96 % of control

CNC(=O)OCc1c(COC(=O)NC)c(-c2ccccc2)n2c1CCC2
inactive: [4] 124 % of control | [5] 124 % of control

CC(C)(C)C(S)CS (stereo not given)
inactive: [13] 104 % of control | [14] 104 % of control | [1] 101 % of control and 103 % of control

COc1cccc(N)c1N
inactive: [18] 99 % of control | dose: 25.0 mg/kg/injection, schedule: Q01DX009 (ip), vehicle: suspension in saline 103 % of control | [19] 100 % of control | dose: 50.0 mg/kg/injection, schedule: Q01DX009 (ip), vehicle: suspension in saline 106 % of control | dose: 100.0 mg/kg/injection, schedule: Q01DX009 (ip), vehicle: saline 106 % of control | dose: 100.0 mg/kg/injection, schedule: Q01DX009 (ip), vehicle: suspension in saline 107 % of control | dose: 200.0 mg/kg/injection, schedule: Q01DX009 (ip), vehicle: saline 96 % of control | dose: 200.0 mg/kg/injection, schedule: Q01DX009 (ip), vehicle: suspension in saline 91 % of control

C1CCC(N2CCOCC2)CC1
inactive: dose: 12.5 mg/kg/injection, schedule: Q01DX009 (ip), vehicle: saline 99 % of control | [18] 117 % of control | [19] 100 % of control and 101 % of control

NC(=O)NC(c1ccccc1)C(O)(c1ccccc1)c1ccccc1 (stereo not given)
inactive: [10] 87 % of control | [11] 93 % of control | [12] 96 % of control

O=C(O)c1cc[c]([Hg][S]c2ncnc3nc[nH]c23)cc1
inactive: dose: 1.56 mg/kg/injection, schedule: Q01DX009 (ip), vehicle: saline with Tween-80 106 % of control | dose: 3.13 mg/kg/injection, schedule: Q01DX009 (ip), vehicle: saline with Tween-80 110 % of control and 123 % of control | [16] 100 % of control | dose: 12.5 mg/kg/injection, schedule: Q01DX009 (ip), vehicle: saline with Tween-80 100 % of control | [20] 121 % of control

O=C1CSCC(=O)OCCOCCSCCOCCO1
inactive: dose: 100.0 mg/kg/injection, schedule: Q04DX003 (ip), vehicle: suspension in saline 92 % of control | dose: 200.0 mg/kg/injection, schedule: Q04DX003 (ip), vehicle: suspension in saline 99 % of control | dose: 400.0 mg/kg/injection, schedule: Q04DX003 (ip), vehicle: suspension in saline 101 % of control

O=C(CC(=NCCCN=C(CC(=O)c1ccccc1)c1ccccc1)c1ccccc1)c1ccccc1
inactive: [10] 96 % of control | [11] 100 % of control | [12] 100 % of control

Cc1cc(C)n(C(=O)n2nc(C)cc2C)n1
inactive: [17] 100 % of control | dose: 100.0 mg/kg/injection, schedule: Q01DX005 (ip), vehicle: saline 107 % of control | dose: 200.0 mg/kg/injection, schedule: Q01DX005 (ip), vehicle: saline 100 % of control

CC(C)(C(=O)c1ccccc1)C(=O)c1ccccc1
inactive: [10] 95 % of control | [11] 100 % of control | [12] 95 % of control

C#CCN(C)/N=N/c1nc[nH]c1C(N)=O
inactive: [9] 115 % of control | [20] 122 % of control | [4] 120 % of control | [5] 112 % of control
